Measured values: patent US12344852B2, “Control of phenotype in plants” (GREENVENUS, LLC, priority 2016, dated 2025)

What was measured:
GUS reporter gene = assay: Ligand inducible GUS silencing (Agro-infiltration, X-gluc staining) in DCL1/DCL2/GUS hairpin petunia lines; assay type: cell-based
Method: Assay for Agro-infiltration. Transient β-glucoronidase (GUS) expression, was modified from previously reported literature (Wroblewski et al. (2005) Plant Biotechnol. J. 3(2):259-273). Specifically, Agrobacterium tumefaciens strain EHA105 containing an appropriate plasmid for GUS expression was grown overnight to an OD600 of 0.8 and re-suspended in induction buffer with the following components: MS basal medium (Sigma-Aldrich), 10 mM MgCl2, and 100 uM acetosyringone. After 4 hours, induced culture suspension was infiltrated into detached fully expanded petunia leaves (approximately 0.1 mL/leaf). Leaves were incubated in a humidity chamber at 28° C. for 3 days.
Histochemical X-gluc staining for GUS visualization. […]
Ligand inducible hairpin expression for dsRNA synthesis targeting two Botrytis cinerea genes and the GUS reporter gene. Ligand inducible expression of the DCL1/DCL2/GUS hairpin cassette was evaluated using the transient Agrobacterium-mediated GUS expression as described above only detached leaves were sprayed with 50 uM ligand or mock treated with water prior to Agro-infiltration. […]
Eight independent Switch-DCL1/DCL2/GUS petunia lines were evaluated by detaching 6 leaves from each line and splitting into two treatments. […]

[1] = test system: barstar gene under EcR-based switch; assay: barstar expression by qRT-PCR in leaf and floral tissues of ID06 plants; assay type: in vivo, Arabidopsis; conditions: 250 nM vs water

In the case of `COc1cccc(C(=O)NN(C(=O)c2cc(C)cc(C)c2)C(C)(C)C)c1C` [methoxyfenozide, 3-methoxy-2-methylbenzoic acid 2-(3,5-dimethylbenzoyl)-2-(1,1-dimethylethyl)hydrazide], the “GUS expression in constitutive controls DCL-25 and DCL-6” value (GUS reporter gene; 50 uM ligand vs water) is reported as “did not show any ligand induced changes to GUS expression”, the “GUS expression in Switch DCL-8 line” value (GUS reporter gene; 50 uM sprayed on detached leaves twice, Agro-infiltration at 3 days, X-gluc staining 3 days later, listed as ligand) is reported as “ligand induced GUS silencing” and the expression of barstar [1] is reported as “dramatically increased”.
